Our source for the IC50 values is US20230339970A1, “CASEIN KINASE 1 DELTA MODULATORS” (priority 2020, published 2023).

Structures are written as SMILES.

For assay [1], the target named is T1, human CSNK1D (Homo sapiens, UniProt P48730).
T1 construct: expressed in transfected cells
Kind of assay: Whole Cell nBRET CSNK1D Binding Assay. The following applies: living CHO cells stably expressing human CSNK1D tagged with nanoluciferase; NanoBret tracer 130 nM; 2 hours at 37 C.

In assay [2] the target is T2, human recombinant GST cleaved CSNK1D (Homo sapiens, UniProt P48730).
T2 construct: GST (cleaved yes); purchased University of Dundee clone DU 19064
T2 sequence (P48730 whole entry): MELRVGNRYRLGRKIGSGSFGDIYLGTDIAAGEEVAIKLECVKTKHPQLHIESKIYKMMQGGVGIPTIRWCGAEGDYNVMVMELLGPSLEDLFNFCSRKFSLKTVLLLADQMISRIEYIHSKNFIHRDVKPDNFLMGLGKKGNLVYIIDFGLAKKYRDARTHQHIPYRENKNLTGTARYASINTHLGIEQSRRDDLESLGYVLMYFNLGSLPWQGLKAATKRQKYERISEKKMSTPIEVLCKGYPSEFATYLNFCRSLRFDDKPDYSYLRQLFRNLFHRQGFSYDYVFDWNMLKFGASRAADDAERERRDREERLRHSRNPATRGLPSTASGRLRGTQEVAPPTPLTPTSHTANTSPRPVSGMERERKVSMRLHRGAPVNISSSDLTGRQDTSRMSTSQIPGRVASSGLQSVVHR
Put plainly: Purified Enzyme Assay (ADP-Glo CSNK1D Kinase Assay). The format is biochemical. The following applies: 2 nM CSNK1D; peptide substrate 150 μM; ATP 20 μM; 45 minutes at room temperature. The procedure: In this assay, CSNK1D phosphorylates a substrate peptide PLSRTL-pS-VASLPGL in the presence of ATP. […] This assay monitors CSNK1D kinase activity by measuring the amount of ADP produced in the assay.
The substrate mix is added to each well of a low volume, 384-well, white opaque plate. Test compounds were diluted in HBSS and added in a dose-response to the plate.
The total volume of each reaction is 5 ul (2 μL of substrate mix, 1 μL of diluted compounds, and 2 μL of human recombinant CSNK1D). The plates are incubated for 45 minutes at room temperature.
ADP was quantified using the ADP-Glo™ Kinase Assay. ADP-Glo Reagent (5 μL) was added to each well. After a 1 hour incubation at room temperature, Kinase Detection Reagent (10 μL) was added to each well and incubated for 30 minutes. […] The raw data from the Envision is used to calculate percent activity.
(In general: In ADP-Glo the light output rises with the ADP produced.)

T1 sequence (P48730 whole entry): as above

In the case of `Fc1ccc(-c2nn3c(c2-c2ccnc4[nH]ncc24)COC2(C3)CC2(F)F)nc1` (single isomer, unassigned) [Example 433, (*R)-1′. 1′-Difluoro-2-(5-fluoro-2-pyridyl)-3-(1H-pyrazolo[3,4-b]pyridin-4-yl)spiro[4,7-dihydropyrazolo[5,1-c][1,4]oxazine-6,2′-cyclopropane]], the IC50 (usually the midpoint of a concentration-inhibition curve) in assay [1] came to 79 nM; in assay [2], 4 nM.

As for `CC1(C)Cn2nc(-c3ccc(F)cn3)c(-c3ccnc4[nH]nc(Br)c34)c2CO1` [Example 152, 3-(3-Bromo-1H-pyrazolo[3,4-b]pyridin-4-yl)-2-(5-fluoropyridin-2-yl)-6,6-dimethyl-6,7-dihydro-4H-pyrazolo[5,1-c][1,4]oxazine], the IC50 was 25 nM in assay [1] and 3 nM in assay [2].

As to `Fc1cnc(-c2nn3c(c2-c2ccnc4[nH]ncc24)OCCC3)c(F)c1` [Example 188, 2-(3,5-Difluoro-2-pyridyl)-3-(1H-pyrazolo[3,4-b]pyridin-4-yl)-6,7-dihydro-5H-pyrazolo[5,1-b][1,3]oxazine], the IC50 in assay [1] worked out at 139 nM; in assay [2], 12 nM.

Regarding `Cn1cc2nccc(-c3c(-c4ccc(F)cn4)nn4c3COC(C)(C)C4)c2n1` [Example 138, 2-(5-Fluoropyridin-2-yl)-6,6-dimethyl-3-(2-methyl-2H-pyrazolo[4,3-b]pyridin-7-yl)-6,7-dihydro-4H-pyrazolo[5,1-c][1,4]oxazine], the IC50 amounted to 999 nM in assay [1] and 106 nM in assay [2].

As for `Cc1cc(-c2c(-c3ccc(F)cn3)nn3c2C[C@@]2(C3)CC2(F)F)c2cn[nH]c2n1` (single isomer, unassigned) [Example 260, (*S)-1′,1′-Difluoro-2-(5-fluoro-2-pyridyl)-3-(6-methyl-1H-pyrazolo[3,4-b]pyridin-4-yl)spiro[4,6-dihydropyrrolo[1,2-b]pyrazole-5,2′-cyclopropane]], the results for the IC50 in assay [1] and in assay [2] were 107 nM and 3 nM, respectively.

In the case of `Cc1cc(-c2c(-c3ccc(F)cc3)nn3c2CO[C@@H](C)C3)c2cn[nH]c2n1` (single isomer, unassigned) [Example 83, (*S)-2-(4-Fluorophenyl)-6-methyl-3-(6-methyl-1H-pyrazolo[3,4-b]pyridin-4-yl)-6,7-dihydro-4H-pyrazolo[5,1-c][1,4]oxazine], the IC50 in assay [1] was determined as 34 nM; in assay [2], 3 nM.

As to `COCC1CCc2c(-c3cc(C)nc4[nH]ncc34)c(-c3ccc(F)cn3)nn2C1` (single isomer, unassigned) [Example 297, (*R)-4-[2-(5-Fluoro-2-pyridyl)-6-(methoxymethyl)-4,5,6,7-tetrahydropyrazolo[1,5-a]pyridin-3-yl]-6-methyl-1H-pyrazolo[3,4-b]pyridine], the IC50 in assay [1] amounted to 297 nM; in assay [2] it was 12 nM.

For `Fc1ccc(-c2nn3c(c2-c2c(F)cnc4[nH]ncc24)CCC2(C3)CC2(F)F)nc1` (single isomer, unassigned) [Example 330, (*R)-2,2-Difluoro-3′-(5-fluoro-1H-pyrazolo[3,4-b]pyridin-4-yl)-2′-(5-fluoropyridin-2-yl)-4′,5′-dihydro-7′H-spiro[cyclopropane-1,6′-pyrazolo[1,5-a]pyridine]], the IC50 in assay [1] is 22 nM; in assay [2], 2 nM.

As for `Cc1nc(-c2c(-c3ccc(F)cc3)nn3c2CC[C@@]2(C3)CC2(F)F)c2cn[nH]c2n1` (single isomer, unassigned) [Example 335, (*S)-2,2-Difluoro-2′-(4-fluorophenyl)-3′-(6-methyl-1H-pyrazolo[3,4-d]pyrimidin-4-yl)-4′,5′-dihydro-7′H-spiro[cyclopropane-1,6′-pyrazolo[1,5-a]pyridine]], the values for the IC50 in assay [1] and in assay [2] were 373 nM and 13 nM, respectively.

Regarding `CC1(C)Cn2nc(-c3ccc(F)cn3)c(-c3ccnc(NC(=O)CC(F)(F)F)c3)c2CO1` [Example 133, 3,3,3-Trifluoro-N-(4-(2-(5-fluoropyridin-2-yl)-6,6-dimethyl-6,7-dihydro-4H-pyrazolo[5,1-c][1,4]oxazin-3-yl)pyridin-2-yl)propenamide], the values for the IC50 in assay [1] and in assay [2] were 8 nM and 2 nM, respectively.

Take `Fc1ccc(-c2nn3c(c2-c2ccnc4[nH]ncc24)[C@H](Cl)C[C@]2(C3)CC2(F)F)nc1` (single isomer, unassigned) [Example 338, (1*S,4′*R)-4′-Chloro-2,2-difluoro-2′-(5-fluoropyridin-2-yl)-3′-(1H-pyrazolo[3,4-b]pyridin-4-yl)-4′,5′-dihydro-7′H-spiro[cyclopropane-1,6′-pyrazolo[1,5-a]pyridine]]: the IC50 in assay [1] was 72 nM; in assay [2], 5 nM.

As for `Fc1cnc(-c2nn3c(c2-c2ccnc4[nH]ncc24)CCCC3)c(F)c1` [Example 38, 4-[2-(3,5-Difluoro-2-pyridyl)-4,5,6,7-tetrahydropyrazolo[1,5-a]pyridin-3-yl]-1H-pyrazolo[3,4-b]pyridine], the IC50 turned out to be 238 nM in assay [1] and 14 nM in assay [2].

For `Cc1nc(-c2c(-c3ccc(F)cc3)nn3c2CCC3)c2cn[nH]c2n1` [Example 225, 4-[2-(4-Fluorophenyl)-5,6-dihydro-4H-pyrrolo[1,2-b]pyrazol-3-yl]-6-methyl-1H-pyrazolo[3,4-d]pyrimidine], the values for the IC50 in assay [1] and in assay [2] were 88 nM and 8 nM, respectively.

With `Fc1ccc(-c2nn3c(c2-c2c(F)cnc4[nH]ncc24)CC(F)(F)CC3)cc1` [Example 278, 4-[5,5-Difluoro-2-(4-fluorophenyl)-6,7-dihydro-4H-pyrazolo[1,5-a]pyridin-3-yl]-5-fluoro-1H-pyrazolo[3,4-b]pyridine], the IC50 in assay [1] turned out to be 64 nM; in assay [2] it was 7 nM.

For `Cc1cc(-c2c(-c3ccc(F)cn3)nn3c2C2CC2C3)c2cn[nH]c2n1` (racemic) [Example 24, 2-(5-Fluoropyridin-2-yl)-3-(6-methyl-1H-pyrazolo[3,4-b]pyridin-4-yl)-3b,4,4a,5-tetrahydrocyclopropa[3,4]pyrrolo[1,2-b]pyrazole], the IC50 in assay [1] was found to be 55 nM; in assay [2], 4 nM.

For the compound `Fc1ccc(-c2nn3c(c2-c2ccnc4[nH]ncc24)[C@@H]2CC[C@H]3C2)cc1` (single isomer, unassigned) [Example 60, 4*R,7*S)-2-(4-Fluorophenyl)-3-(1H-pyrazolo[3,4-b]pyridin-4-yl)-4,5,6,7-tetrahydro-4,7-methanopyrazolo[1,5-a]pyridine], the values for the IC50 in assay [1] and in assay [2] were 3 nM and 1 nM, respectively.

As for `O=C(Nc1cc(-c2c(-c3ccc(F)cn3)nn3c2OCC2(CC2)C3)ccn1)C1CC1` [Example 456, N-(4-(2′-(5-Fluoropyridin-2-yl)-5′H,7′H-spiro[cyclopropane-1,6′-pyrazolo[5,1-b][1,3]oxazin]-3′-yl)pyridin-2-yl)cyclopropanecarboxamide], the IC50 came to 7 nM in assay [1] and 1 nM in assay [2].

On to `C[C@H]1Cn2nc(-c3ccc(F)cc3)c(-c3ccnc4[nH]ncc34)c2CO1` (single isomer, unassigned) [Example 81, (*)-2-(4-Fluorophenyl)-6-methyl-3-(1H-pyrazolo[3,4-b]pyridin-4-yl)-6,7-dihydro-4H-pyrazolo[5,1-c][1,4]oxazine], for which the IC50 in assay [1] amounted to 48 nM; in assay [2], 2 nM.

Take `CC1(C)COc2c(-c3ccnc4cn[nH]c34)c(-c3ccc(F)cn3)nn2C1` [Example 454, 2-(5-Fluoro-2-pyridyl)-6,6-dimethyl-3-(1H-pyrazolo[4,3-b]pyridin-7-yl)-5,7-dihydropyrazolo[5,1-b][1,3]oxazine]: the values for the IC50 in assay [1] and in assay [2] were 127 nM and 6 nM, respectively.

`CC(=O)Nc1cc(-c2c(-c3ccc(F)cc3)nn3c2OCCCC3)ccn1` [Example 215, N-(4-(2-(4-Fluorophenyl)-5,6,7,8-tetrahydropyrazolo[5,1-b][1,3]oxazepin-3-yl)pyridin-2-yl)acetamide]: the IC50 was determined as 28 nM in assay [1] and 1 nM in assay [2].

Regarding `Cc1nc2[nH]nc(C)c2c(-c2c(-c3ccc(F)cn3)nn3c2CC[C@]2(C3)CC2(F)F)c1F` (single isomer, unassigned) [Example 334, (*R)-2,2-Difluoro-3′-(5-fluoro-3,6-dimethyl-1H-pyrazolo[3,4-b]pyridin-4-yl)-2′-(5-fluoropyridin-2-yl)-4′,5′-dihydro-7′H-spiro[cyclopropane-1,6′-pyrazolo[1,5-a]pyridine]], the IC50 in assay [1] amounted to 1550 nM; in assay [2] it was 70 nM.

Turning to `Fc1ccc(-c2nn3c(c2-c2c(F)cnc4[nH]ncc24)CCC3)nc1` [Example 221, 5-Fluoro-4-[2-(5-fluoro-2-pyridyl)-5,6-dihydro-4H-pyrrolo[1,2-b]pyrazol-3-yl]-1H-pyrazolo[3,4-b]pyridine], the IC50 in assay [1] was found to be 460 nM; in assay [2] it was 7 nM.

For `[2H]C([2H])([2H])C1(C([2H])([2H])[2H])Cn2nc(-c3ccc(F)cn3)c(-c3c(F)cnc4[nH]nc(Cl)c34)c2CO1` [Example 403, 3-(3-Chloro-5-fluoro-1H-pyrazolo[3,4-b]pyridin-4-yl)-2-(5-fluoropyridin-2-yl)-6,6-bis(methyl-d3)-6,7-dihydro-4H-pyrazolo[5,1-c][1,4]oxazine], the IC50 in assay [1] amounted to 23 nM; in assay [2] it was 5 nM.
